In US9592226B2, “Solenopsin and derivatives, therapeutic compositions; and methods related thereto” (priority 2013, dated 2017):
“Also recorded” adds a separate entry of the source.

How the values were obtained:
[1] = system: A375 (human melanoma) cells; experiment: Proliferation study, A375 cells (Coulter Counter); format: cell-based; settings: 10 μM, 24 h, cell count vs DMSO
Method: 50,000 cells/well were plated and treated for 24 h with each compound. The first DMSO bar in each chart serves as control for (+)-solenopsin A, (−)-solenopsin A, and ceramide C2. The second DMSO bar is the control for S11-S15.
(§1) Different analogs of solenopsin were synthesized (FIG. 1) in order to explore their structure-activity relationships. The aliphatic side chains of S14 and S13 are 4 and 8 carbons longer compared to solenopsin, respectively. S11 has an 8-carbon longer side chain, as well as an extra methyl group in the 4-position of the piperidine ring. S15 has an 11-carbon side chain similar to solenopsin, but the first carbon in the side chain is hydroxylated. Also, S15 lacks the methyl group in the 2-position of the piperidine ring. All the analogs together with (−)- and (+)-solenosin A, and the isomeric mixture of the two cis-isomers of solenopsin (S12) were tested, at 10 μM, on two different human melanoma cell lines (A375 and A2058) and one murine angiosarcoma cell line (SVR) (FIG. 2). The A375 and A2058 melanoma cell lines express mutant Braf and the SVR murine angiosarcoma cell line expresses mutant Hras. One important difference between the two human melanoma cell lines is the A2058 is PTEN null, whereas A375 is not.
(§2) A375 (human melanoma), A2058 (human melanoma), or SVR (murine angiosarcoma) cells were plated at a concentration of 50,000 cells/well. The cells were treated with 10 μM of (−)-solenopsin A, (+)-solenopsin A, or analogs (S11-S15) for 24 hours, at which point cells were counted with a Coulter Counter.

[2] = system: A2058 (human melanoma) cells; experiment: Proliferation study, A2058 cells (Coulter Counter); format: cell-based; settings: 10 μM, 24 h, cell count vs DMSO
From the text: as §1, §2

[3] = system: SVR (murine angiosarcoma) cells; experiment: Proliferation study, SVR cells (Coulter Counter); format: cell-based; settings: 10 μM, 24 h, cell count vs DMSO
From the text: as §1, §2

[4] = system: UM-SCC1A cells; experiment: Oxygen consumption rate (Seahorse) in UM-SCC1A cells; format: cell-based, human; settings: 10 μM, 24 h
Method: UM-SCC1A cells were plated 15,000/well and treated for 24 h with 10 μM of (+)-solenopsin A ((+) Sol. A), (−)-solenopsin A ((−) Sol. A), and solenopsin analogs S11-S15. Oxygen consumption rate (OCR) was measured as pmoles O2/minute using a Seahorse Biosciences instrument. Data shown are an average of three experiments±s.d.
At least not in Braf mutated cell lines, such as A375 and A2058. One possibility is that solenopsin, like ceramide, may also localize to mitochondria, and cause mitochondrial induced cell death. Cellular oxygen consumption rate can be indicative of mitochondrial function. Therefore, to investigate if solenopsin A and analogs do alter mitochondrial function, UM-SCC1A (human head and neck SCC) cells were then treated with 10 μM compound or the equivalent amount of DMSO and incubated for 24 hours. A SeaHorse Bioscience instrument was used to measure the oxygen consumption rate (OCR). […] Mitophagy can be one reason for decreased OCR, but further assays are needed to confirm the cause for the observed differences.
UM-SCC1A cells were plated 15,000 per well in 200 μl DMEM supplemented with 10% FBS and 1% penicillin-streptomycin in each well of a 96-well Seahorse plate and incubated overnight at 37° C. with 5% CO2. Cells were then treated with 10 μM compound or the equivalent amount of DMSO and incubated for 24 hours. OCR was measured as pmoles O2/minute using the Seahorse Biociences instrument per manufacturer's instructions. Protein amounts in each well were then quantified using the Thermo Scientific Pierce Protein Assay, per manufacturer's instructions.

[5] = system: A375 cells; experiment: Superoxide (ROS) by DHE fluorescence, A375 cells; format: cell-based, human; settings: 10 μM, 24 h
Method: Cells were treated for 24 h with 10 μM of (+)-solenopsin A ((+) Sol. A), (−)-solenopsin A ((−) Sol. A), and solenopsin analogs S11-S15. Cells were trypsined and incubated for 10 min in 10 μM dihydroethedium (DHE), followed by analysis with a FACScan flow cytometer. Data shown are an average of three experiments±s.d.
A375 or SVR cells were plated in 6 cm dishes. After cells had adhered to the plates, they were treated for 24 h with 10 μM DMSO solutions of (+)-solenopsin A, (−)-solenopsin A, or analogs (S11-S15) at which time the media was aspirated. Cells were washed with 2 mL PBS then treated with 0.05% trypsin/0.53 mM EDTA (Fisher) for 3 min at RT. Cells were collected and then pelleted at 600 g for 2 min. The supernatant was aspirated and the cells were suspended in 10 uM dihydroethidium (DHE) (Life Technologies) and incubated for 10 min in the dark at RT while shaking Following this incubation, cells were kept until counting on a Becton Dickinson FACScan flow cytometer. 10,000 cells were counted and analyzed by FlowJo 7.6.4. Mean values of DHE fluorescence intensity were compared.

[6] = system: p-Akt S473; experiment: Western blot p-Akt S473 in SVR cells; format: cell-based, murine; settings: 10 μM (ceramide C2 20 μM), 24 h
Method: (§3) A375, SVR, and A2058 cells were treated for 24 h with ceramide C2 (20 μM), (+)-solenopsin A ((+) Sol. A, 10 μM), (−)-solenopsin A ((−) Sol. A, 10 μM), or solenopsin analogs S11-S15 (10 μM). The expression of p-AKT S473, p-pMAPK 44/42, and B-actin was determined by western blotting.
(§4) A375, SVR, and A2058 cells treated with solenopsin A and analogs were evaluated by Western-blotting with pAkt S473, p-pMAPK 44/42, and β-actin (FIG. 5). Although the proliferation results were more or less similar in all three cell lines, the protein expressions varied. In A375's an up-regulation of pAkt S473 and p-pMAPK 44/42 could be seen for (+)- and (−)-solenopsin A, as well as for analogs S12-S15 (FIG. 5). […] The results for cell line A2058 is similar to A375, i.e. there is an up-regulation of p-Akt S473 and p-pMAPK 44/42 in the treatment groups compared to the control. […] Both human melanoma cell lines (A375 and A2058) are reactive oxygen driven tumors, whereas the murine angiosarcoma cell line (SVR) is not. […]
(§5) Cells were grown in T-25 flasks until 80% confluent followed by treatment for 24 h with 10 μM DMSO solutions of (+)-solenopsin A, (−)-solenopsin A, or analogs (S11-S15). Sample aliquots normalized for protein quantities were size fractionated by 10% SDS-PAGE, and the proteins were transferred to a PVDF membrane. […]

[7] = system: p-pMAPK 44/42; experiment: Western blot p-pMAPK 44/42 in SVR cells; format: cell-based, murine; settings: 10 μM (ceramide C2 20 μM), 24 h
Method: as §3, §4, §5

[8] = system: Pseudomonas aeruginosa; settings: Park et al. 2008; cited from earlier work
[9] = system: phosphoinositol-3 kinase; settings: p53 deficient renal cell carcinoma cell line 786-O; Arbiser et al. 2007; cited from earlier work
[10] = system: angiogenesis; settings: Arbiser et al., Blood 2007; cited from earlier work
[11] = biological target: neuronal nitric oxide synthase (Homo sapiens, UniProt P29475); settings: Yi et al., Int J Toxicol 2003; cited from earlier work
neuronal nitric oxide synthase, sequence (P29475 whole entry): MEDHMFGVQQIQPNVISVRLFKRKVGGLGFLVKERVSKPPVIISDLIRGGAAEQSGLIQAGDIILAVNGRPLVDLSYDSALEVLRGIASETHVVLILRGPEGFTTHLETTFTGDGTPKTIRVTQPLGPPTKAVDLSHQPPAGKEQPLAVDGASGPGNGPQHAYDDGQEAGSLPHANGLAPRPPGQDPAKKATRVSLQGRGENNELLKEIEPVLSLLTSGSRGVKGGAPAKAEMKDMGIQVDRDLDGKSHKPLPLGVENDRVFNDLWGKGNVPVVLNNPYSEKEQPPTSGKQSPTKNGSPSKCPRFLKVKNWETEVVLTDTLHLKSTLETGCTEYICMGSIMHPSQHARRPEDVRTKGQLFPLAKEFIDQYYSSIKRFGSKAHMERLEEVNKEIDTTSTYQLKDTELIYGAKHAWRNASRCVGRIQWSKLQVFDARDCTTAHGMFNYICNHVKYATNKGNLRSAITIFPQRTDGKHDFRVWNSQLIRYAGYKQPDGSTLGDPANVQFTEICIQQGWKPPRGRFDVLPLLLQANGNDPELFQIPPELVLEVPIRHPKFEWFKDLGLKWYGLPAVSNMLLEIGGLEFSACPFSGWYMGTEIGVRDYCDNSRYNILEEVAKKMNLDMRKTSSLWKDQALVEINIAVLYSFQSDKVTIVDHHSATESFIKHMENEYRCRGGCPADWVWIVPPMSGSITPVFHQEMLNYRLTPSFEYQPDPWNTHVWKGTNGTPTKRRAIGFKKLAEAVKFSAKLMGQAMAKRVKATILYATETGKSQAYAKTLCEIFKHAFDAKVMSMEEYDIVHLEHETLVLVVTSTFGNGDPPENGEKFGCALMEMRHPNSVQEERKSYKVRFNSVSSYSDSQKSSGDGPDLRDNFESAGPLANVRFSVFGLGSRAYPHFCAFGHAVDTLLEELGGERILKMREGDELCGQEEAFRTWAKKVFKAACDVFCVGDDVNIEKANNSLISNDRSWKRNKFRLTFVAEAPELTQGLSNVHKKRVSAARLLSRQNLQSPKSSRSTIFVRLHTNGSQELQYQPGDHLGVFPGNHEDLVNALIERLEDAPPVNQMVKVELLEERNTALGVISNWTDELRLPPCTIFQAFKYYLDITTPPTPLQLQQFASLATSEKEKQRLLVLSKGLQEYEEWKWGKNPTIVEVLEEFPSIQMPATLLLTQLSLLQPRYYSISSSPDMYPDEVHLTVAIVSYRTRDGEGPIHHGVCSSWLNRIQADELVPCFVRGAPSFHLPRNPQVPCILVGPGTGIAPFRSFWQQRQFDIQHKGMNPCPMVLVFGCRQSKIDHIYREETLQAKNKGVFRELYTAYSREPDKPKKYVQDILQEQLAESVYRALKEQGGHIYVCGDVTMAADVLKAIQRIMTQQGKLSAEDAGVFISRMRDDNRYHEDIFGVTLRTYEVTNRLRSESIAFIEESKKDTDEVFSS

[12] = system: PTEN; experiment: Lipid raft fractionation (sucrose density gradient), PTEN translocation to membrane rafts in A375 cells; format: cell-based, human; settings: 50 μM (positive control), 1 h
Method: A375 cells were treated for 1 h with: ceramide C2 (50 μM), (+)-solenopsin A ((+) Sol. A, 20 μM), (−)-solenopsin A ((−) Sol. A, 20 μM), or solenopsin analogs S11-S15 (20 μM). Cells were lysed in 0.5% Brij96 in TNEV, loaded onto the 5-40% sucrose gradient, and centrifuged at 34,000 rpm at 4° C. for 22 h. Thirteen fractions were collected, starting from the top of the tube. Equal volumes of each fraction were analyzed by Western blotting with caveolin and PTEN antibodies. Caveolin serves a positive control for which fractions that contain lipid rafts.
Caveolin was used as a positive marker to identify lipid raft fractions and an anti-PTEN antibody was used to identify PTEN-containing fractions (FIG. 3). A375 cells were treated for 1 h with 20 μM of (+)-solenopsin, (−)-solenopsin, or analogs S11-S15. […]
Cells were grown in T-75 flasks until 80% confluent followed by treatment for 1 h with 20 μM DMSO solutions of (+)-solenopsin A, (−)-solenopsin A, analogs (S12-S15), or 50 μM of ceramide C2 in DMSO. […] Equal volumes of each fraction were analyzed by Western blot with relevant antibodies.
as §5

With `CCCCCCCCCCCCCCCCCCCC1CC(C)CC(C)N1` (centres unmarked) [Compound S11, 2,4-Dimethyl-6-nonadecylpiperidine] the antiproliferative effect [1] was “no significant antiproliferative effect”, the antiproliferative effect [2] was “no significant antiproliferative effect” and the antiproliferative effect [3] was “no significant antiproliferative effect”. The “oxygen consumption rate (OCR) compared to DMSO control” value [4] was “little change compared to the control” and the “effect on superoxide levels (DHE fluorescence)” value [5] was “no effect on superoxide levels”.
In the case of `CCCCCCCCCCCC1CCCC(C)N1` (centres unmarked) [Compound S12, 2-Methyl-6-undecylpiperidine], the antiproliferative effect [1] is reported as “anti-proliferative properties, although not as potent as solenopsin A itself; also recorded: clearly weaker than for the (−)- and (+)-solenopsin A”, the antiproliferative effect [2] is reported as “anti-proliferative properties, although not as potent as solenopsin A itself; also recorded: clearly weaker than for the (−)- and (+)-solenopsin A” and the antiproliferative effect [3] is reported as “anti-proliferative properties, although not as potent as solenopsin A itself; also recorded: clearly weaker than for the (−)- and (+)-solenopsin A”. The “oxygen consumption rate (OCR) compared to DMSO control” value [4] was “drastically reduced OCR”.
For `CCCCCCCCCCCCCCCC1CCCC(C)N1` (centres unmarked) [Compound S14, 2-Methyl-6-pentadecylpiperidine], the antiproliferative effect [1] was “equally as effective as solenopsin A; also recorded: most potent analog”, the antiproliferative effect [2] was “equally as effective as solenopsin A; also recorded: approximately equally as potent as (−)- and (+)-solenopsin A” and the antiproliferative effect [3] was “equally as effective as solenopsin A; also recorded: most potent analog”. The “expression of p-Akt S473” value [6] was “down-regulated”, the “expression of p-pMAPK 44/42” value [7] was “down-regulated” and the “oxygen consumption rate (OCR) compared to DMSO control” value [4] was “drastically reduced OCR”.
For `CCCCCCCCCCC(O)C1CCCCN1` (centres unmarked) [Compound S15, 1-(Piperidin-2-yl)undecan-1-ol], the antiproliferative effect [1] was “equally as effective as solenopsin A; also recorded: potent antiproliferative effect”, the antiproliferative effect [2] was “equally as effective as solenopsin A; also recorded: potent antiproliferative effect; also recorded: most potent analog” and the antiproliferative effect [3] was “equally as effective as solenopsin A; also recorded: potent antiproliferative effect”. For the same compound, the “expression of p-Akt S473” value [6] was “down-regulated”, the “expression of p-pMAPK 44/42” value [7] was “down-regulated” and the “oxygen consumption rate (OCR) compared to DMSO control” value [4] was “drastically reduced OCR”.
In the case of `CCCCCCCCCCCC1CCCC(C)N1` (centres unmarked) [Solenopsin, 2-methyl-6-nundecylpiperidine], the “quorum sensing in Pseudomonas aeruginosa” value [8] is listed as “blocks quorum sensing”, the phosphoinositol-3 kinase [9] is listed as “downregulated phosphoinositol-3 kinase” and the anti-angiogenic activity [10] is listed as “anti-angiogenic activity”.
For `CCCCCCCCCCCC1CCCC(C)N1` (centres unmarked) [isosolenopsin A, 2-methyl-6-nundecylpiperidine], the “inhibition of neuronal nitric oxide synthase” value [11] is listed as “potent and selective inhibitor”.
For Ceramide, the “amount of PTEN in the lipid raft fractions” value [12] was “higher amount of PTEN in the lipid raft fractions”.
